US9255295B2, “Method for evaluating the sensitizing potential of a test compound” (IMMUNOSEARCH, priority 2010, dated 2016)
Read-outs that look alike come from different tables or passages of the source.

How the values were obtained:
[1] = official classification: non-sensitizer, irritant, or sensitizing Extreme/Strong/Moderate/Weak; cited from earlier work
[2] = tested on: genes specific for sensitization (BRAK, CTSS, DAPK2, FABP4, HSP27, IL18, HSP90, IL1R2, TPSAB1, CXCR1, DEFB1, DHFR, EHF, IVL, KRT4, MELANA, NGAL, PDZK1IP1, PI3 …); test: Expression of the other (non-ARE) sensitization-specific genes in EPISKIN reconstructed skin (quantitative RT-PCR); format: cell-based, human; details: for BRAK expression / CTSS expression / CXCR1 expression / DAPK2 expression / DEFB1 expression / DHFR expression / EHF expression / FABP4 expression / HSP27 expression / HSP90 expression / IL18 expression / IVL expression / KRT4 expression / MELANA expression / NGAL expression / P13 expression / PDZK1iP1 expression / SERPINB3 expression: compared to the control;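 for CTSS NUMBER OF GENES grade: grade scored against expression in the control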;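 for CXCR1 NUMBER OF GENES grade: grade scored against expression in the control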;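 for DAPK2 NUMBER OF GENES grade: grade scored against expression in the control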
[3] = tested on: ARE gene family (AKR1B10, AKR1C1, AKR1C2, CYP1B1, FTH1P, FTL, G6PD, GCLM, NQO2, SLC7A11, TXNRD1, UGT1A1, UGT1A9, YWHAZ, CD36, CYP1A1, GCLC, HMOX1, NQO1, PSME2 …); details: human, 6 h

N#CCCC(Br)(C#N)CBr (centres unmarked) [2-Bromo-2-(bromomethyl)glutaronitrile]
Class [1]: S

CC(O)C(=O)O (centres unmarked) [Lactic acid (cys pos), Lactic acid]
BRAK NUMBER OF GENES grade ([2]; 1%): 0 (if this expression is lower, the grade is 0)
CTSS NUMBER OF GENES grade ([2]; 1%): 0 (if this expression is lower, the grade is 0)
CXCR1 NUMBER OF GENES grade ([2]; 1%): 0 (if this expression is lower, the grade is 0)
DAPK2 NUMBER OF GENES grade ([2]; 1%): 0 (if this expression is lower, the grade is 0)
DEFB1 NUMBER OF GENES grade ([2]; 1%): 0 (if this expression is lower, the grade is 0)
DHFR NUMBER OF GENES grade ([2]; 1%): 0 (if this expression is lower, the grade is 0)
EHF NUMBER OF GENES grade ([2]; 1%): 0 (if this expression is lower, the grade is 0)
FABP4 NUMBER OF GENES grade ([2]; 1%): 0 (if this expression is lower, the grade is 0)
HSP27 NUMBER OF GENES grade ([2]; 1%): 0 (if this expression is lower, the grade is 0)
HSP90 NUMBER OF GENES grade ([2]; 1%): 0 (if this expression is lower, the grade is 0)
IL18 NUMBER OF GENES grade ([2]; 1%): 0 (if this expression is lower, the grade is 0)
IVL NUMBER OF GENES grade ([2]; 1%): 0 (if this expression is lower, the grade is 0)
KRT4 NUMBER OF GENES grade ([2]; 1%): 0 (if this expression is lower, the grade is 0)
MELANA NUMBER OF GENES grade ([2]; 1%): 0 (if this expression is lower, the grade is 0)
NGAL NUMBER OF GENES grade ([2]; 1%): 0 (if this expression is lower, the grade is 0)
P13 NUMBER OF GENES grade ([2]; 1%): 0 (if this expression is lower, the grade is 0)
PDZK1iP1 NUMBER OF GENES grade ([2]; 1%): 0 (if this expression is lower, the grade is 0)
SERPINB3 NUMBER OF GENES grade ([2]; 1%): 0 (if this expression is lower, the grade is 0)
TOTAL SENS (number of genes) ([2]; 1%): 0
BRAK expression ([2]; 1%): 0.8
CTSS expression ([2]; 1%): 1.0
CXCR1 expression ([2]; 1%): 0.7
DAPK2 expression ([2]; 1%): 1.2
DEFB1 expression ([2]; 1%): 0.9
DHFR expression ([2]; 1%): 0.9
EHF expression ([2]; 1%): 0.9
FABP4 expression ([2]; 1%): 0.7
HSP27 expression ([2]; 1%): 1.0
HSP90 expression ([2]; 1%): 1.0
IL18 expression ([2]; 1%): 0.9
IVL expression ([2]; 1%): 1.0
KRT4 expression ([2]; 1%): 0.9
MELANA expression ([2]; 1%): 0.7
NGAL expression ([2]; 1%): 0.9
P13 expression ([2]; 1%): 0.8
PDZK1iP1 expression ([2]; 1%): 1.0
SERPINB3 expression ([2]; 1%): 0.9
BRAK NUMBER OF GENES grade ([2]; 10%): 0 (if this expression is lower, the grade is 0)
CTSS NUMBER OF GENES grade ([2]; 10%): 0 (if this expression is lower, the grade is 0)
CXCR1 NUMBER OF GENES grade ([2]; 10%): 0 (if this expression is lower, the grade is 0)
DAPK2 NUMBER OF GENES grade ([2]; 10%): 0 (if this expression is lower, the grade is 0)
DEFB1 NUMBER OF GENES grade ([2]; 10%): 0 (if this expression is lower, the grade is 0)
DHFR NUMBER OF GENES grade ([2]; 10%): 0 (if this expression is lower, the grade is 0)
EHF NUMBER OF GENES grade ([2]; 10%): 0 (if this expression is lower, the grade is 0)
FABP4 NUMBER OF GENES grade ([2]; 10%): 0 (if this expression is lower, the grade is 0)
HSP27 NUMBER OF GENES grade ([2]; 10%): 0 (if this expression is lower, the grade is 0)
HSP90 NUMBER OF GENES grade ([2]; 10%): 0 (if this expression is lower, the grade is 0)
IL18 NUMBER OF GENES grade ([2]; 10%): 0 (if this expression is lower, the grade is 0)
IVL NUMBER OF GENES grade ([2]; 10%): 0 (if this expression is lower, the grade is 0)
KRT4 NUMBER OF GENES grade ([2]; 10%): 0 (if this expression is lower, the grade is 0)
MELANA NUMBER OF GENES grade ([2]; 10%): 0 (if this expression is lower, the grade is 0)
NGAL NUMBER OF GENES grade ([2]; 10%): 0 (if this expression is lower, the grade is 0)
P13 NUMBER OF GENES grade ([2]; 10%): 0 (if this expression is lower, the grade is 0)
PDZK1iP1 NUMBER OF GENES grade ([2]; 10%): 0 (if this expression is lower, the grade is 0)
SERPINB3 NUMBER OF GENES grade ([2]; 10%): 0 (if this expression is lower, the grade is 0)
TOTAL SENS (number of genes) ([2]; 10%): 0
BRAK expression ([2]; 10%): 1.0
CTSS expression ([2]; 10%): 1.1
CXCR1 expression ([2]; 10%): 0.7
DAPK2 expression ([2]; 10%): 1.1
DEFB1 expression ([2]; 10%): 1.0
DHFR expression ([2]; 10%): 1.0
EHF expression ([2]; 10%): 0.9
FABP4 expression ([2]; 10%): 0.9
HSP27 expression ([2]; 10%): 0.9
HSP90 expression ([2]; 10%): 0.9
IL18 expression ([2]; 10%): 1.0
IVL expression ([2]; 10%): 0.9
KRT4 expression ([2]; 10%): 0.8
MELANA expression ([2]; 10%): 0.8
NGAL expression ([2]; 10%): 1.0
P13 expression ([2]; 10%): 0.8
PDZK1iP1 expression ([2]; 10%): 1.0
SERPINB3 expression ([2]; 10%): 1.1
BRAK NUMBER OF GENES grade ([2]; 50%): 0 (if this expression is lower, the grade is 0)
CTSS NUMBER OF GENES grade ([2]; 50%): 1 (If the expression is greater than 1.3 compared to the control, a grade of 11s given)
CXCR1 NUMBER OF GENES grade ([2]; 50%): 0 (if this expression is lower, the grade is 0)
DAPK2 NUMBER OF GENES grade ([2]; 50%): 0 (if this expression is lower, the grade is 0)
DEFB1 NUMBER OF GENES grade ([2]; 50%): 0 (if this expression is lower, the grade is 0)
DHFR NUMBER OF GENES grade ([2]; 50%): 0 (if this expression is lower, the grade is 0)
EHF NUMBER OF GENES grade ([2]; 50%): 0 (if this expression is lower, the grade is 0)
FABP4 NUMBER OF GENES grade ([2]; 50%): 0 (if this expression is lower, the grade is 0)
HSP27 NUMBER OF GENES grade ([2]; 50%): 0 (if this expression is lower, the grade is 0)
HSP90 NUMBER OF GENES grade ([2]; 50%): 0 (if this expression is lower, the grade is 0)
IL18 NUMBER OF GENES grade ([2]; 50%): 0 (if this expression is lower, the grade is 0)
IVL NUMBER OF GENES grade ([2]; 50%): 0 (if this expression is lower, the grade is 0)
KRT4 NUMBER OF GENES grade ([2]; 50%): 0 (if this expression is lower, the grade is 0)
MELANA NUMBER OF GENES grade ([2]; 50%): 0 (if this expression is lower, the grade is 0)
NGAL NUMBER OF GENES grade ([2]; 50%): 0 (if this expression is lower, the grade is 0)
P13 NUMBER OF GENES grade ([2]; 50%): 0 (if this expression is lower, the grade is 0)
PDZK1iP1 NUMBER OF GENES grade ([2]; 50%): 0 (if this expression is lower, the grade is 0)
SERPINB3 NUMBER OF GENES grade ([2]; 50%): 0 (if this expression is lower, the grade is 0)
TOTAL SENS (number of genes) ([2]; 50%): 1
BRAK expression ([2]; 50%): 0.7
CTSS expression ([2]; 50%): 1.4
CXCR1 expression ([2]; 50%): 0.8
DAPK2 expression ([2]; 50%): 1.1
DEFB1 expression ([2]; 50%): 1.1
DHFR expression ([2]; 50%): 0.9
EHF expression ([2]; 50%): 0.9
FABP4 expression ([2]; 50%): 0.8
HSP27 expression ([2]; 50%): 0.8
HSP90 expression ([2]; 50%): 0.9
IL18 expression ([2]; 50%): 0.8
IVL expression ([2]; 50%): 0.9
KRT4 expression ([2]; 50%): 0.8
MELANA expression ([2]; 50%): 0.6
NGAL expression ([2]; 50%): 1.0
P13 expression ([2]; 50%): 0.9
PDZK1iP1 expression ([2]; 50%): 1.0
SERPINB3 expression ([2]; 50%): 1.2
CD36 expression ([3]; 1 %): 1.1
S100A8 expression ([3]; 1 %): 0.8
CD36 expression ([3]; 10 %): 1.1
S100A8 expression ([3]; 10 %): 1.0
CD36 expression ([3]; 50 %): 0.9
S100A8 expression ([3]; 50 %): 1.1

O=CCCCC=O [Glutaraldehyde]
Class [1]: S
